Source: patent publication EP0007294A2, “Membrane stabilizing compounds having beta-receptor blocking activity, their preparation, method for treatment of arrhythmic conditions, and pharmaceutical preparations containing same” (priority 1978, dated 1980)
Where two headings read alike, the source gives them in different places.

Tests used:
[1] = test system: ouabain-induced arrhythmias; experiment: Ouabain-induced arrhythmias in anesthetized guinea-pigs; assay type: in vivo; conditions: for A-A EFFECT IN NUMBER OF ANIMALS: animals with antiarrhythmic effect / animals tested; for LOWEST FREQUENCY: frequency of ventricular premature beats after test solution; for ASYSTOLE: time of asystole under continued ouabain; for V-FIB: time of ventricular fibrillation under continued ouabain
Experimental: Guinea-pigs of either.sex (300-400 g) were anesthetized with urethane 1,4 g/kg i.p. and tracheotomized. ECG, lead II was picked up with needle electrodes and was registered continuously throughout the experiment. Two i.v. catheters were inserted: one for the administration of ouabain, the other for the test solution.
The experimental design for the study of antiarrhythmic activities is schematically shown in the head of Table 2. The arrhythmia was induced by automatic infusion of ouabain, 18 µg/kg/60" every two minutes for twelve minutes and thereafter 9 µg/kg/30" every two minutes throughout the whole experiment and the infusion was not stopped until asystole occurred. As soon as the frequency of ventricular premature beats (VPB) had passed 50 per cent, the test solution was given i.v. (0,2 ml/min) during 2 min. (see head of Table 2).

[2] = test system: ectopics; experiment: Conscious dogs with ligation of a coronary artery according to Harris: ectopics and convulsions; assay type: in vivo; conditions: for ED50 / ED90: Canis lupus familiaris; for ED50: read-out: Conscious dog Harris ligation Ectopics -50%; for ED90: read-out: Conscious dog Harris ligation Ectopics -90%
Text: (§1) Male beagle dogs, 7-13 kg, undergo two days prior to the test a surgical ligation of a coronary artery. On the day of the test the conscious dog is secured in a canvas sling in a standing position and given increasing doses of the test compounds by intravenous administration. ECG, blood pressure etc are monitored and attention is paid to all CNS-effects. The dogs have almost 100 percent of ectopics prior to administration of the compound to be tested. Effects of the test drug on the frequency of ectopics are calculated from ECG. The accumulative end doses giving 50% and 90% reduction of ectopics as well as the ED50 values which give convulsions (side-effect) are measured and given below in Table 3. The value for convulsions is a mean value for 3-5 dogs.
(§2) x) The value given is the final value in a series of doses 0.5 + 1 + 2 + 4 + 8 mg/kg i.v. giving 50% reduction of ectopics. 30 min interval between doses.
(§3) Table 3: Antiarrythmic effect and CNS-effects of four β-receptor blockers, a membrane stabilizer, and ten new compounds with combined β-blocking and membrane stabilizing effect.

[3] = as above; assay type: in vivo; conditions: in vivo
Text: as §1, §2, §3

[4] = test system: chloroform induced ventricular tachy-cardia; experiment: Alternative chloroform test on mice: ventricular tachycardia inhibition and ataxia; assay type: in vivo; conditions: for ED50: Mus musculus
Experimental: (§4) In an alternative chloroform test on mice the ventricular tachycardia inhibition by the test compounds are observed. Thereby the test solution is given subcutaneous and the animal is observed for CNS-effects for 20 min. The mouse is put into a chamber with chloroform until it stops breathing (approx 30 sec.). The animal is then secured on a cork-board and ECG is monitored. If the ventricular rythm is less than 520 beats per min., the animal was protected against ventricular tachycardia. Groups of 10 animals were tested for each dose-level'and the ED50-values have been calculated therefrom. During the test the side-effect ataxia (incordination of movements) is observed.
(§5) In Table 5, as shown, the new compounds tested exerted antiarrhythmic effects also in this te-st.

[5] = as above; assay type: in vivo; conditions: mouse, in vivo
Experimental: as §4, §5

[6] = test system: chloroform-induced ventricular arrhythmias; experiment: Chloroform-induced ventricular arrhythmias (fibrillation) in mice, intraperitoneal dose; conditions: for Number of Animals Dead / Number of Animals Protected: dose 100 mg/kg intraperitoneal, 10 treated; for Number of Animals Protected: protected against CHCl3-induced ventricular fibrillation; for Number of Animals Convulsive / Number of Animals LRR: mouse, in vivo, ip, 100 mg/kg
Text: Mice were given an intraperitoneal dose of the test compound. Twenty minutes after dose, they were suffocated in chloroform vapor.- When the animals stopped breathing, the chest was opened to inspect for fibrillation. If the heart was not fibrillating, it was prodded.
Signs of CNS toxicity were noted during the 20-minute interval between dosing and challenge.
"Protected" means number of animals protected against CHC13- induced ventricular fibrillation.

[7] = iv., accumulative end dose giving 50% reduction of ectopics
[8] = iv., accumulative end dose giving 90% reduction of ectopics
[9] = iv., conscious dog, mean value for 3-5 dogs, read-out: ED50 Convulsive
[10] = sc., mice, chloroform, groups of 10 animals per dose-level
[11] = sc., mice, observed for 20 min, read-out: Ataxia ED50

Compound: CC(C)NC[C@@H](O)COc1cccc2ccccc12 [D-Propranolol]
- A-A EFFECT IN NUMBER OF ANIMALS ([1]; dose 0.3 mg/kg i.v.): 6/8
- A-A EFFECT IN NUMBER OF ANIMALS ([1]; dose 1.0 mg/kg i.v.): 6/6
- LOWEST FREQUENCY ([1]; dose 0.3 mg/kg i.v.): 36±5%
- LOWEST FREQUENCY ([1]; dose 1.0 mg/kg i.v.): 5±3%
- ASYSTOLE ([1]; dose 0.3 mg/kg i.v.): 22 ± 1 min
- ASYSTOLE ([1]; dose 1.0 mg/kg i.v.): 29 ± 1 min
- V-FIB ([1]; dose 0.3 mg/kg i.v.): 14 ± 1 min
- V-FIB ([1]; dose 1.0 mg/kg i.v.): 23 ± 2 min
- ED50 [2, 7]: 1 mg/kg
- ED90 [2, 8]: 4 mg/kg
- TD50 [3, 9]: 8 mg/kg
- ED50 [4, 10]: ~8 mg/kg
- TD50 at 20 min [5, 11]: ~30 mg/kg

Compound: COCCc1ccc(OCC(O)CNCCc2ccccc2)c(Br)c1 (centres unmarked) [EX 3]
- A-A EFFECT IN NUMBER OF ANIMALS ([1]; dose 0.3 mg/kg i.v.): 5/6
- A-A EFFECT IN NUMBER OF ANIMALS ([1]; dose 1.0 mg/kg i.v.): 6/6
- LOWEST FREQUENCY ([1]; dose 0.3 mg/kg i.v.): 26±7%
- LOWEST FREQUENCY ([1]; dose 1.0 mg/kg i.v.): 13±7%
- ASYSTOLE ([1]; dose 0.3 mg/kg i.v.): 34 ± 1 min
- ASYSTOLE ([1]; dose 1.0 mg/kg i.v.): 41 ± 2 min
- V-FIB ([1]; dose 0.3 mg/kg i.v.): 27 ± 1 min
- V-FIB ([1]; dose 1.0 mg/kg i.v.): 35 ± 2 min

Compound: COCCc1ccc(OCC(O)CNC(C)Cc2ccc(O)cc2)c(Br)c1 (centres unmarked) [EX 4, 3-[1-methyl-2-i4-hydroxyphenyl)-ethylaminol-1-[4-(2-methoxyethyl)-2-bromophenoxy]-propanol-2]
- A-A EFFECT IN NUMBER OF ANIMALS ([1]; dose 0.3 mg/kg i.v.): 3/6
- A-A EFFECT IN NUMBER OF ANIMALS ([1]; dose 1.0 mg/kg i.v.): 6/6
- LOWEST FREQUENCY ([1]; dose 0.3 mg/kg i.v.): 31±14%
- LOWEST FREQUENCY ([1]; dose 1.0 mg/kg i.v.): 6±3%
- ASYSTOLE ([1]; dose 0.3 mg/kg i.v.): 27 ± 1 min
- ASYSTOLE ([1]; dose 1.0 mg/kg i.v.): 41 ± 3 min
- V-FIB ([1]; dose 0.3 mg/kg i.v.): 19 ± 1 min
- V-FIB ([1]; dose 1.0 mg/kg i.v.): 31±3 (N=4) min

Compound: COCCc1ccc(OCC(O)CNCCc2ccccc2)cc1 (centres unmarked) [Ex. 1]
- A-A EFFECT IN NUMBER OF ANIMALS ([1]; dose 0.3 mg/kg i.v.): 4/8
- A-A EFFECT IN NUMBER OF ANIMALS ([1]; dose 1.0 mg/kg i.v.): 9/9
- LOWEST FREQUENCY ([1]; dose 0.3 mg/kg i.v.): 38±13%
- LOWEST FREQUENCY ([1]; dose 1.0 mg/kg i.v.): 9±4%
- ASYSTOLE ([1]; dose 0.3 mg/kg i.v.): 28 ± 1 min
- ASYSTOLE ([1]; dose 1.0 mg/kg i.v.): 38 ± 4 min
- V-FIB ([1]; dose 0.3 mg/kg i.v.): 19 ± 1 min
- V-FIB ([1]; dose 1.0 mg/kg i.v.): 31 ± 4 min
- Number of Animals Dead [6]: 0
- Number of Animals Protected [6]: 9
- Number of Animals Convulsive [6]: 1
- Number of Animals LRR [6]: 0

Compound: COCc1ccc(OCC(O)CNCc2ccccc2)cc1 (centres unmarked) [Ex. 6, 3-phenylmethylamino-1-[4-methoxymgthylphenoxy]-propanol-2]
- ED50 [2, 7]: 8 mg/kg
- ED90 [2, 8]: > 16 mg/kg
- TD50 ([3]; dog, iv): 14 mg/kg
- ED50 [4, 10]: ~200 mg/kg
- TD50 at 20 min ([5]; sc): ~70 mg/kg

Compound: COCc1ccc(OCC(O)CNCCc2ccccc2)cc1 (centres unmarked) [Ex. 7]
- ED50 [2, 7]: 4 mg/kg
- ED90 [2, 8]: 8 mg/kg
- TD50 ([3]; dog, iv): > 8 mg/kg
- ED50 [4, 10]: ~50 mg/kg
- TD50 at 20 min ([5]; sc): ~100 mg/kg

Compound: COCc1ccc(OCC(O)CNCCCCc2ccccc2)cc1 (centres unmarked) [Ex. 8, 3-[4-phenylbutylamino)-1-(4-methoxymethylphenoxy)-propanol-2]
- ED50 [2, 7]: 4 mg/kg
- ED90 [2, 8]: > 8 mg/kg
- TD50 ([3]; dog, iv): 8 mg/kg

Compound: COCCc1ccc(OCC(O)CNCc2ccccc2)cc1 (centres unmarked) [Ex. 9, 3-phenylmethylamino-1-[4-(2-methoxyethyl)phenoxy]-propanol-2]
- ED50 [2, 7]: 2 mg/kg
- ED90 [2, 8]: 4 mg/kg
- TD50 ([3]; dog, iv): 8 mg/kg
- ED50 [4, 10]: 35 mg/kg
- TD50 at 20 min ([5]; sc): 60 mg/kg

Compound: COCCc1ccc(OCC(O)CNCCCc2ccccc2)cc1 (centres unmarked) [Ex. 10, 3-(3-phenylpropylamino)-1-[4-(2-methoxyethyl)phenoxy]-propanol-2]
- ED50 [2, 7]: 2 mg/kg
- ED90 [2, 8]: 4 mg/kg
- TD50 ([3]; dog, iv): > 8 mg/kg
- ED50 [4, 10]: 3 mg/kg
- TD50 at 20 min ([5]; sc): > 50 mg/kg

Compound: COCCc1ccc(OCC(O)CNCCCCc2ccccc2)cc1 (centres unmarked) [Ex. 11, 3-(4-phenylbutylamino)-1-[4-(2-methoxyethyl)phenoxy]-propanol--2]
- ED50 [2, 7]: 1 mg/kg
- ED90 [2, 8]: 2 mg/kg
- TD50 [3, 9]: 8 mg/kg
- ED50 [4, 10]: 15 mg/kg
- TD50 at 20 min [5, 11]: > 50 mg/kg

Compound: COCCc1ccc(OCC(O)CNCCOc2ccccc2)cc1 (centres unmarked) [Ex. 13, 3-[2-phenoxyethylamino]-1-[4-(2-methoxyethyl)phenoxy]-propanol--2]
- ED50 [2, 7]: 4 mg/kg
- ED90 [2, 8]: 4 mg/kg
- TD50 [3, 9]: 8 mg/kg
- ED50 [4, 10]: 3 mg/kg
- TD50 at 20 min [5, 11]: > 12 mg/kg

Compound: COCCc1ccc(OCC(O)CNCCc2ccccc2)cc1 (centres unmarked) [Ex. 14, 3-(2-phenethylamino)-1-[4-(2-methoxyethyl)phenoxy]-propanol-2]
- ED50 Convulsive ([2]; dog, in vivo, iv): 6 to 8 mg/kg
- Conscious dog Harris ligation Ectopics -50% [2, 7]: 1 mg/kg
- Conscious dog Harris ligation Ectopics -90% [2, 8]: 2 mg/kg
- Ataxia ED50 ([4]; mouse, in vivo, sc, 20 min): 40 mg/kg
- Ventricular tachy-cardia inhibition ED50 [4, 10]: 10 mg/kg

Compound: COCCc1ccc(OCC(O)CNCCCCc2ccc(OC)c(OC)c2)cc1 (centres unmarked) [Ex. 15]
- ED50 [2, 7]: 1 mg/kg
- ED90 [2, 8]: 4 mg/kg
- TD50 ([3]; dog, iv): 6 mg/kg
- ED50 [4, 10]: 1.2 mg/kg
- TD50 at 20 min ([5]; sc): > 6.3 mg/kg

Compound: CCN(CC)CC(=O)Nc1c(C)cccc1C [Lidocaine]
- A-A EFFECT IN NUMBER OF ANIMALS ([1]; dose 4.0 mg/kg i.v.): 5/5
- A-A EFFECT IN NUMBER OF ANIMALS ([1]; dose 12.0 mg/kg i.v.): 5/6
- LOWEST FREQUENCY ([1]; dose 4.0 mg/kg i.v.): 10±1%
- LOWEST FREQUENCY ([1]; dose 12.0 mg/kg i.v.): 5±3%
- ASYSTOLE ([1]; dose 4.0 mg/kg i.v.): 21 ± 1 min
- ASYSTOLE ([1]; dose 12.0 mg/kg i.v.): 30 ± 3 min
- V-FIB ([1]; dose 4.0 mg/kg i.v.): 15 ± 2 min
- V-FIB ([1]; dose 12.0 mg/kg i.v.): 22 ± 3 min
- Number of Animals Dead [6]: 0
- Number of Animals Protected [6]: 5
- Number of Animals Convulsive [6]: 10
- Number of Animals LRR [6]: 10

Compound: COC(=O)NCCc1ccc(OCC(O)CNC(C)C)cc1 (centres unmarked) [Pamatolol]
- Number of Animals Dead [6]: 0
- Number of Animals Protected [6]: 5
- Number of Animals Convulsive [6]: 0
- Number of Animals LRR [6]: 0

Compound: CC(=O)Nc1ccc(OCC(O)CNC(C)C)cc1 (centres unmarked) [Practolol, reference compound]
- ED50 [2, 7]: > 16 mg/kg
- ED90 [2, 8]: > 16 mg/kg
- TD50 [3, 9]: > 16 mg/kg
- ED50 [4, 10]: 2 mg/kg
- TD50 at 20 min [5, 11]: > 50 mg/kg

Compound: Cc1cccc(C)c1NC(=O)C(C)N (centres unmarked) [Tocainide, reference compound]
- ED50 [2, 7]: 4 mg/kg
- ED90 [2, 8]: 8 mg/kg
- TD50 ([3]; dog, iv): > 8 mg/kg
- ED50 [4, 10]: 90 mg/kg
- TD50 at 20 min ([5]; sc): 130 mg/kg
